Measured values reported in US9192670B2, “Regulation of amyloid beta molecular composition for the treatment of alzheimer's disease” (Ramot at Tel-Aviv University Ltd., priority 2011, dated 2015).
“Also recorded” adds a separate entry of the source. Read-outs that look alike come from different tables or passages of the source.

Experiments:
hippocampal slices = assay: Extracellular Aβ40/Aβ42 by sandwich ELISA in acute hippocampal slices stimulated by single spikes or spike bursts; format: cell-based, rat
CA3-CA1 connections [1] = assay: fEPSP/EPSC recordings in CA3-CA1 connections of hippocampal slices; format: cell-based, rat
human cortical slices [2] = assay: fEPSP recordings in human cortical slices; format: cell-based; details: RS-baclofen 20 μM
Procedure: (§1) Human slices were subjected to 1 hour stimulations by single spikes or spike bursts as described for experiments in rodents herein above (each burst contains 5 APs, inter-spike-interval 10 ms, inter-burst interval 5 s) in ACSF in the presence of 50 μM AP-5 for blocking postsynaptic excitatory NMDA receptors. Following stimulation, [Aβ40]o and [Aβ42]o in ACSF were measured by sandwich ELISA. Extracellularly recorded field EPSPs (fEPSPs) were used to assess short-term synaptic plasticity.

human hippocampal slices = assay: Extracellular Aβ40/Aβ42 by ELISA in human hippocampal slices, single spikes or spike bursts; format: cell-based; details: RS-baclofen 20 μM
Procedure: as §1

[3] = test system: APP/PS1 hippocampal slices; assay: Extracellular Aβ40/Aβ42 by ELISA in APP/PS1 hippocampal slices, single spikes or spike bursts; format: cell-based, mouse
CFP-PS1-YFP = format: cell-based, rat
human cortical slices [4] = assay: Extracellular Aβ40/Aβ42 by ELISA in human cortical slices, single spikes or spike bursts; format: cell-based; details: RS-baclofen 20 μM
Procedure: as §1

CA3-CA1 connections [5] = assay: fEPSP recordings in CA3-CA1 connections of APP/PS1 hippocampal slices; format: cell-based, mouse
CA3-CA1 connections [6] = assay: fEPSP recordings in CA3-CA1 connections of human hippocampal slices; format: cell-based; details: RS-baclofen 20 μM
Procedure: as §1

APP = assay: Western blot of APP processing in APP/PS1 hippocampal slices; format: cell-based, mouse; details: APP/PS1 slices before and after pre-treatment with baclofen
From the text: Immunoblot Analysis. At the end of each stimulation, hippocampal slices were homogenized and prepared for the detection of full-length APP, soluble APP and APP-C terminal fragment (APP-CTF) by western blotting as described previously^18. Full length APP and soluble APP was probed using anti-APP 22C11 monoclonal antibody (Millipore, Temecula, Calif., 1:2000). In APP/PS1 slices, APP-bCTF was detected using 82E1 monoclonal antibody (IBL, Japan, 1:200). Both 22C11 and 82E1 probing were followed by goat anti-mouse HRP conjugated secondary antibody (Jackson ImmunoResearch, West Grove, Pa., 1:5000). APP-aCTF was detected using rabbit anti-APP-CTF antibody (Millipore, Temecula, Calif., 1:10,000) followed by goat anti-rabbit HRP conjugated secondary antibody (Jackson ImmunoResearch, West Grove, Pa., 1:5000). Following detection, blots were stripped with Restore™ Western Blot Stripping Buffer (Pierce, Thermo Scientific, Rockford, Ill.) and then re-probed with mouse anti-actin (SIGMA, Israel, 1:10,000) and HRP-conjugated goat anti-mouse (1:5000) antibodies as a loading control protein. All proteins were visualized by SuperSignal® West Pico Chemiluminescent (Pierce; Thermo Scientific, Rockford, Ill.). Densitometry was performed using the ImageJ Analysis software, and each band was normalized to its actin signal.

rat hippocampal cultures = format: cell-based
[7] = in vivo; cited from earlier work
[8] = baclofen 1 μM, 3 h, APP/PS1 slices
[9] = 20 mM gabazine, 1 h at 37° C., blocking GABAA receptors

Which “Aβ40/42 during periods of high-frequency burst firing” value (hippocampal slices) does the source give for ω-conotoxin GVIA [ω-CgTx] here?
The value was “boosting”.

And the “Aβ40 pattern dependency (burst/single ratio)” value (hippocampal slices)?
The value was “rescued”.

What about the Aβ42 burst/single ratio (hippocampal slices) of the same compound?
The Aβ42 burst/single ratio was “unaltered”.

And the “[Aβ40]o during single spikes” value (hippocampal slices)?
The value was “decreased”.

What about the “[Aβ40]o during spike bursts” value (hippocampal slices) of the same compound?
Its value is “increasing”.

And the “pattern dependency of the Aβ40/42 ratio” value (hippocampal slices)?
Its value is “restored”.

And the basal synaptic transmission (CA3-CA1 connections [1])?
The basal synaptic transmission was “rescued”.

What about the “burst/single ratio of fEPSP charge transfer per spike (QfEPSP)” value (“burst/single ratio … per spike (QfEPSP)” below) (CA3-CA1 connections [1]) of the same compound?
Its value is “rescued”.

What about the “short-term facilitation (relative slopes of fEPSPs within the burst)” value (CA3-CA1 connections [1]) of the same compound?
Its value is “rescued”.

What about the “slope of linear fit of input-output relationship (stimulation amplitude vs slope of fEPSP)” value (CA3-CA1 connections [1]) of the same compound?
Its value is 0.82±0.03.

What does the source list for C[C@H](NC[C@H](O)CP(=O)(O)CC1CCCCC1)c1ccc(Cl)c(Cl)c1 [CGP54626]?
[Aβ40]o during single spikes (hippocampal slices): did not affect; [Aβ40]o during spike bursts (hippocampal slices): reduced; [Aβ42]o during either single spikes or bursts (hippocampal slices): did not affect; difference between the Aβ40/42 ratio associated with single and burst patterns (hippocampal slices): abolished; pattern dependency of Aβ40 (hippocampal slices): reduced; pattern dependency of the Aβ40/42 ratio (hippocampal slices): reduced; burst/single ratio of fEPSP charge transfer per spike (QfEPSP) (CA3-CA1 connections [1]): reduced; short-term synaptic facilitation during the burst (CA3-CA1 connections [1]): reduced; slope of linear fit of input-output relationship (stimulation amplitude vs slope of fEPSP) (CA3-CA1 connections [1]): 1.13±0.06

Which short-term synaptic depression (human cortical slices [2]) does the source give for NCC(CC(=O)O)c1ccc(Cl)cc1 (stereo not drawn) [baclofen] here?
Its short-term synaptic depression is “reduced”.

What about the “Aβ40/42 ratio during burst pattern of stimulation” value (human hippocampal slices) of the same compound?
The value was “increased”.

And the Aβ42 pattern dependency (human hippocampal slices)?
The Aβ42 pattern dependency was “without affecting”.

What about the “[Aβ42]o during either single- or burst stimulation pattern” value (human hippocampal slices) of the same compound?
The value was “uniformly inhibited”.

And the “burst pattern sensitivity of Aβ40” value (human hippocampal slices)?
The value was “increased”.

What about the “pattern dependency of the Aβ40/42” value (human hippocampal slices) of the same compound?
The value was “induced”.

And the “[Aβ40]o” value (human hippocampal slices; stronger during single spikes)?
The value was “inhibited”.

And the “Aβ40/42 ratio associated with burst patterns” value [3]?
The value was “increased”.

What about the “[Aβ40]o during single spikes” value [3] of the same compound?
Its value is “did not affect”.

And the “[Aβ42]o during either single spikes or bursts” value [3]?
Its value is “did not affect”.

What about the “burst/single ratio of Aβ42” value [3] of the same compound?
The value was “did not affect”.

What about the “pattern dependency of the Aβ40/42 ratio” value [3] of the same compound?
Its value is “rescued”.

What about the “reduction in the Aβ40 burst/single ratio” value [3] of the same compound?
The value was “rescued”.

And the “[Aβ40]o during bursts” value [3, 8]?
Its value is “increased”.

And the “FYFP/FCFP (FR) on changing stimulation pattern from single spikes to spike bursts” value (CFP-PS1-YFP)?
The value was “not affected”.

What about the Aβ42 pattern dependency (human cortical slices [4]) of the same compound?
The Aβ42 pattern dependency was “no effect”.

What about the “burst pattern sensitivity of Aβ40” value (human cortical slices [4]) of the same compound?
The value was “increased”.

What about the “pattern dependency of the Aβ40/42” value (human cortical slices [4]) of the same compound?
Its value is “induced”.

What about the “burst/single ratio … per spike (QfEPSP)” value (CA3-CA1 connections [5]) of the same compound?
The value was “reversed”.

What about the “slope of linear fit of input-output relationship (stimulation amplitude vs slope of fEPSP)” value (CA3-CA1 connections [5]) of the same compound?
Its value is 0.95±0.06.

What about the “reduction in short-term synaptic facilitation by burst in APP/PS1 mice” value (CA3-CA1 connections [5]; [8]) of the same compound?
Its value is “reversed”.

What about the “Aβ40/42 during periods of high-frequency burst firing” value (hippocampal slices) of the same compound?
Its value is “boosting”.

And the “Aβ40 pattern dependency (burst/single ratio)” value (hippocampal slices)?
Its value is “rescued”.

And the Aβ42 burst/single ratio (hippocampal slices)?
Its Aβ42 burst/single ratio is “unaltered”.

And the “[Aβ40]o during spike bursts” value (hippocampal slices)?
Its value is “increasing; also recorded: increased”.

And the “[Aβ42]o during either single spikes or bursts” value (hippocampal slices)?
Its value is “did not affect”.

And the “difference between the Aβ40/42 ratio associated with single and burst patterns” value (hippocampal slices)?
Its value is “restored”.

And the “pattern dependency of the Aβ40/42 ratio” value (hippocampal slices)?
Its value is “restored”.

And the “pattern dependency of Aβ40” value (hippocampal slices; 3 h pre-incubation, CGP54626 10 μM, baclofen 1 μM in ↑Ca/Mg-slices)?
Its value is “rescued”.

What about the “short-term synaptic facilitation during the burst” value (CA3-CA1 connections [6]) of the same compound?
Its value is “increased”.

What about the “burst/single ratio of FL-APP” value (APP) of the same compound?
Its value is “no significant differences”.

And the “burst/single ratio of βCTF” value (APP)?
The value was “no significant differences”.

What about the basal synaptic transmission (CA3-CA1 connections [1]) of the same compound?
The basal synaptic transmission was “rescued”.

What about the “burst/single ratio … per spike (QfEPSP)” value (CA3-CA1 connections [1]) of the same compound?
Its value is “rescued”.

What about the “short-term facilitation (relative slopes of fEPSPs within the burst)” value (CA3-CA1 connections [1]) of the same compound?
Its value is “rescued”.

And the “slope of linear fit of input-output relationship (stimulation amplitude vs slope of fEPSP)” value (CA3-CA1 connections [1])?
Its value is 0.77±0.02.

What about the “short-term synaptic facilitation during the burst” value (CA3-CA1 connections [1]; 3 h pre-incubation, CGP54626 10 μM in ACSF, baclofen 1 μM in ↑Ca/Mg-slices, recordings in normal ACSF) of the same compound?
Its value is “rescued”.

And the total synaptic strength (CA3-CA1 connections [1]; pretreatment of hippocampal slices with baclofen for 3 h before electrical stimulation)?
The total synaptic strength was “did not alter”.

For COc1ccc(-c2ccc(=N)n(CCCC(=O)O)n2)cc1 [gabazine], which “[Aβ40]o increased by” value (rat hippocampal cultures; [9]) is on record?
Its value is 93.5%.

And the “[Aβ42]o increased by” value (rat hippocampal cultures; [9])?
Its value is 103%.

What does the source list for OC[C@H]1O[C@@H](n2cnc3c(NC4CCCC4)nc(Cl)nc32)[C@H](O)[C@@H]1O [CCPA, 2-Chloro-N-cyclopentyladenosine]?
Aβ40/42 during periods of high-frequency burst firing (hippocampal slices): boosting; Aβ40 pattern dependency (burst/single ratio) (hippocampal slices): rescued; Aβ42 burst/single ratio (hippocampal slices): unaltered; [Aβ40]o during single spikes (hippocampal slices): decreased; [Aβ40]o during spike bursts (hippocampal slices): increasing; pattern dependency of the Aβ40/42 ratio (hippocampal slices): restored; basal synaptic transmission (CA3-CA1 connections [1]): rescued; burst/single ratio of fEPSP charge transfer per spike (QfEPSP) (CA3-CA1 connections [1]): rescued; short-term facilitation (relative slopes of fEPSPs within the burst) (CA3-CA1 connections [1]): rescued; slope of linear fit of input-output relationship (stimulation amplitude vs slope of fEPSP) (CA3-CA1 connections [1]): 0.49±0.03

With C[C@@H](NC(=O)c1cc(C(=O)N[C@@H](Cc2ccccc2)[C@H](O)CNC2CC2)cc(N(C)S(C)(=O)=O)c1)c1ccccc1 [BACE1 inhibitor IV] as the compound, how does the “[Aβ40]o in pretreated slices” value (hippocampal slices) read?
The value was “negligible”.

And the “[Aβ42]o in pretreated slices” value (hippocampal slices)?
The value was “negligible”.

Which Aβ40/42 pattern dependency (hippocampal slices) does the source give for [Cd] [cadmium] here?
The Aβ40/42 pattern dependency was “abolished”.

What about the Aβ40/42 ratio (hippocampal slices) of the same compound?
Its Aβ40/42 ratio is “decreased”.

What about the Aβ40 burst/single ratio (hippocampal slices) of the same compound?
Its Aβ40 burst/single ratio is “reduced”.

And the “[Aβ40]o reduced by, during single spikes” value (hippocampal slices)?
Its value is 67%.

And the “[Aβ40]o reduced by, during spike bursts” value (hippocampal slices)?
The value was 77%.

And the “[Aβ42]o at either stimulation pattern” value (hippocampal slices)?
The value was “did not alter”.

And the “burst/single ratio of Aβ42” value (hippocampal slices)?
Its value is “did not affect”.

And the synaptic transmission (CA3-CA1 connections [1])?
Its synaptic transmission is “completely blocked”.

With CC(=O)OCOC(=O)CN(CCOCCOCCN(CC(=O)OCOC(C)=O)CC(=O)OCOC(C)=O)CC(=O)OCOC(C)=O [EGTA-AM] as the compound, how does the Aβ40/42 pattern dependency (hippocampal slices) read?
Its Aβ40/42 pattern dependency is “abolished”.

What about the “Aβ40/42 ratio associated with burst patterns” value (hippocampal slices) of the same compound?
Its value is “decreased”.

And the Aβ40 burst/single ratio (hippocampal slices)?
The Aβ40 burst/single ratio was “reduced”.

What about the “[Aβ40]o during spike bursts” value (hippocampal slices) of the same compound?
The value was “reduced”.

And the “[Aβ42]o during either single spikes or bursts” value (hippocampal slices)?
Its value is “did not affect”.

And the “burst/single ratio of Aβ42” value (hippocampal slices)?
The value was “did not affect”.

What about the “EPSCs evoked by single spikes reduced by” value (CA3-CA1 connections [1]) of the same compound?
The value was 20%.

What about the “burst/single ratio of EPSC charge transfer per spike (QEPSC)” value (CA3-CA1 connections [1]) of the same compound?
Its value is “lower”.

And the “synaptic facilitation of EPSCs reduced by” value (CA3-CA1 connections [1])?
Its value is 70%.

Which results are given for NC1=N[C@H](O)[C@H]2[C@H]3O[C@]4(O)O[C@@H]([C@@H](O)[C@@]2(N1)[C@@H]4O)[C@]3(O)CO [tetrodotoxin]?
[Aβ40]o reduced by (rat hippocampal cultures): 34%; [Aβ42]o reduced by (rat hippocampal cultures): 31%; CFP-PS1-YFP FRET efficiency (CFP-PS1-YFP): did not change; FYFP/FCFP (FR) (CFP-PS1-YFP): not affected; elimination rate of total Aβ [7]: lack of TTX effect
